From BindingDB's records for patent US20240043395 (Neuropore Therapies, 2024)

Target: Toll-like receptor 2 (Homo sapiens, UniProt O60603)
Test: LR2 Assays
Protocol: Next, 50 μL of an approximate 3×EC50 concentration of each agonist (Pam2CSK4 or Pam3CSK4) was added to the wells containing test compounds or the vehicle control. The plates were then incubated at 37° C./5% CO2 for 18 h. For each assay run, non-treated HEK-Blue hTLR2 cells were treated with serial dilutions of agonists to determine EC50 values for the respective run. On day 2, secreted alkaline phosphatase (SEAP) activity was detected in cell culture supernatants. In brief, 20 μL was collected from each well and transferred to a 96-well plate. Next, 200 μL of Quanti-Blue detection reagent was added to each well. […] IC50 values were calculated based on 8-point dilutions for each compound.

Toll-like receptor 2, sequence (O60603 whole entry): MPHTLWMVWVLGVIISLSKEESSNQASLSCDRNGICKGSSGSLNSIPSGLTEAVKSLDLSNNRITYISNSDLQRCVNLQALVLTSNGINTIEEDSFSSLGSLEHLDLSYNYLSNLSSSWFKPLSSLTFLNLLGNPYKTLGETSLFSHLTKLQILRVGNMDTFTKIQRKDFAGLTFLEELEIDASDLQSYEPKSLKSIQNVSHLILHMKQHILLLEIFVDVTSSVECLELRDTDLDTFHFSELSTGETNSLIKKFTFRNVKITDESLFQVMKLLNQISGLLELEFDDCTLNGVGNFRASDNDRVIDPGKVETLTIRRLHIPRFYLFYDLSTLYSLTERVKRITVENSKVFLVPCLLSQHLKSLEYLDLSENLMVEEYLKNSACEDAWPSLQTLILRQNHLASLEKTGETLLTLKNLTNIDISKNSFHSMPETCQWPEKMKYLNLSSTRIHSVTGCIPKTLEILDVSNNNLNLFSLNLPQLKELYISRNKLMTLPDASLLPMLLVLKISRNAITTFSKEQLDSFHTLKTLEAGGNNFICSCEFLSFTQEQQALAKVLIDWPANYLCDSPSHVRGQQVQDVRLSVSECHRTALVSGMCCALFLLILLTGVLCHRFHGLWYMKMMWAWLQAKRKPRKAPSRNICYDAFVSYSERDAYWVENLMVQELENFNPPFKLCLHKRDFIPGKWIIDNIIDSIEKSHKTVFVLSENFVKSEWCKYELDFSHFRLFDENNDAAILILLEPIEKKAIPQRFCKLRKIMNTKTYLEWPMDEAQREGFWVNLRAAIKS

IC50: 5.2 µM
SMILES: O=Cc1cc(NC(=O)c2csc(N3CCCCC3)n2)cc(F)c1O [US20240043395, Compound 9]
